Laboratory results published in patent US20100197591A1, “4-AMINO-7,8-DIHYDROPYRIDO[4,3-d]PYRIMIDIN-5(6H)-ONE DERIVATIVES” (pfizer Inc, priority 2009, published 2010).

target: T1, Human full-length diacylglycerol:acylCoA acyltransferase 1 (DGAT-1) (Homo sapiens, UniProt O75907); test: DGAT-1 Reduced Microsome Multidose Assay, G7329F Human IC50; assay type: biochemical; conditions: crude membrane fraction of Sf9 cells expressing human DGAT-1; [14C]decanoylCoA; apparent IC50, average where tested more than once
T1 construct: Human full-length diacylglycerol:acylCoA acyltransferase 1 (DGAT-1) was expressed in Sf9 insect cells; made in house; host or cells: Sf9 insect cells (baculovirus); crude membrane/microsome fraction
T1 sequence (O75907 1-488): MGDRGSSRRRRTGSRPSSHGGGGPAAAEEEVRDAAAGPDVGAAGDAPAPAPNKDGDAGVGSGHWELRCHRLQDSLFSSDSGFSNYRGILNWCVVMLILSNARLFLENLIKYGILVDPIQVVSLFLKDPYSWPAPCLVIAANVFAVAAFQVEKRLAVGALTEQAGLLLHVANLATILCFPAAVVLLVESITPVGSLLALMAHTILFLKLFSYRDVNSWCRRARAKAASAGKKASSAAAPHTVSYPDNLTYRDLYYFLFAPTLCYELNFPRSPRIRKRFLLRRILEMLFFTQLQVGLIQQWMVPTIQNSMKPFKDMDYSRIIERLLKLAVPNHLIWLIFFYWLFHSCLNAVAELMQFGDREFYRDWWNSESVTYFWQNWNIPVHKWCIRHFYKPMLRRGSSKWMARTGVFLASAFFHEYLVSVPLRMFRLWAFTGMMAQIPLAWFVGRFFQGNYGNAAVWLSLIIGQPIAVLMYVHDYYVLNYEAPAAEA
Procedure: Human full-length diacylglycerol:acylCoA acyltransferase 1 (DGAT-1) was expressed in Sf9 insect cells which are then lysed and a crude membrane fraction (105,000×g pellet) was prepared. The DGAT-1 gene is a human DGAT-1 gene described in J Biol Chem 273:26765 (1998) and U.S. Pat. No. 6,100,077.
In vitro inhibition of DGAT-1 was measured using a modification, further described below, of the assay methodology described in U.S. Pat. No. 6,994,956 B2.
The cells were cultured as follows. Sf9 cells (20 L) were infected with 4 mL of DGAT-1 Baculovirus Infected Insect Cells (BIIC) for 72 hours in a Wave Bioreactor System 20/50P (Wave Biotec/GE Healthcare).
Crude DGAT-1 microsomes were prepared as follows. Cell pellets were washed once with ice-cold Dulbecco's phosphate-buffered saline. Cells were collected in tabletop centrifuge (Beckman GS-6KR), 15 minutes, 2000×g, 4° C. Twenty (20) mL of ice-cold Microsome Buffer (MB) was added per 5 g of cell pellet. The suspension was passed through a microfluidizer 3 times (18K psi). The lysate was transferred to centrifuge tubes and centrifuged for 20 minutes at 5000×g (Beckman-Coulter, Inc. Allegra® 64R High-Speed Refrigerated Benchtop Centrifuge, F0650 rotor) at 4° C. The supernatant was transferred to ultracentrifuge tubes and centrifuged at 125,000×g for 1 hour in a Beckman Ti-45 rotor, 4° C. The supernatant fluid was discarded. The pellet was resuspended in 70 mL of MB by sonication. The microsome concentration was determined using Bio-Rad Protein DC Protein Assay. The microsomes were filter sterilized with a 0.22 μm filter. The samples were portioned, flash frozen and stored at −80° C.
The Microsome Buffer, used for microsome preparation, was prepared by conventional means and contained 125 mM sucrose, 3 mM imidazole, 0.2 μg/mL aprotinin, 0.2 μg/mL leupeptin and 5 mM dithiothreitol (Cleland's reagent), DGAT-1 activity was measured in 384-well format in a total assay volume of 25 μl that contained, Hepes buffer (50 mM, pH 7.5), MgCl2 (10 mM), bovine serum albumin (0.6 mg/ml), [^14C]decanoylCoA (20 μM, 58 Ci/mol) and membranes (25 μg/ml) into which 1,2 dioleoyl-sn-glycerol (75 μM) in acetone has already been incorporated. Inhibitors in DMSO were pre-incubated with membranes before initiating the DGAT-1 reaction by the addition of decanoylCoA. […] The DMSO concentration was 2.5%. The inhibitors were present at a range of eight concentrations to generate an apparent IC50 for each compound. The eight inhibitor concentration employed ranged from 10 μM to 3 nM (from high to low concentration). Specifically, the eight concentrations used were 10 μM, 3 μM, 1 μM, 300 nM, 100 nM, 30 nM, 10 nM and 3 nM.
Reaction mixtures were neutralized by the addition of 15 μl of tris(hydroxy-methyl)aminomethane (1M, pH 8.0) and then mixed by trituration with 37.5 μl of Microscint™-E (Perkin Elmer). Plates contents were allowed to partition for 15 to 30 min before ^14C was measured in a scintillation spectrometer (Wallac Microbeta Trilux 1450-030 liquid scintillation counter 12 detector in the top-count DPM mode). Percent inhibition of test compounds was computed as […].
Four separate assays were performed using 4 different methods of analysis. The method of analysis of Assay 1 was the same as Assay 4 (described above) except microsomes were utilized at 25 μg/mL instead of 5 μg/mL. The method of analysis of Assay 2 was the same as Assay 4 (described above) except eleven (11) concentrations of inhibitor were employed instead of eight (8). The method of analysis of Assay 3 was the same as Assay 2 except the compounds were serially diluted in a different laboratory.
Where this DGAT-1 inhibition assay was performed on a compound more than once, an average is provided for that compound.

| SMILES | IC50 [nM] |
| --- | --- |
| COc1nc(N)c2c(n1)CCN(c1ccc(CC3CC3)cc1)C2=O [Example 1C, 4-amino-6-[4-(cyclopropylmethyl)phenyl]-2-methoxy-7,8-dihydropyrido[4,3-d]pyrimidin-5(6H)-one] | 11 |
| COc1nc(N)c2c(n1)CCN(c1ccc3c(c1)CCC3)C2=O [Example 1D, 4-amino-6-(2,3-dihydro-1H-inden-5-yl)-2-methoxy-7,8-dihydropyrido[4,3-d]pyrimidin-5(6H)-one] | 40.4 |
| COc1nc(N)c2c(n1)CCN(c1ccc(C3CC3)cc1)C2=O [Example 1E, 4-amino-6-(4-cyclopropylphenyl)-2-methoxy-7,8-dihydropyrido[4,3-d]pyrimidin-5(6H)-one] | 28.8 |
| COc1nc(N)c2c(n1)CCN(c1ccc(C(C)C)c(F)c1)C2=O [Example 1G, 4-amino-6-(3-fluoro-4-isopropylphenyl)-2-methoxy-7,8-dihydropyrido[4,3-d]pyrimidin-5(6H)-one] | 9.66 |
| COc1nc(N)c2c(n1)CCN(c1ccc(C3CC(F)(F)C3)cc1)C2=O [Example 1H, 4-amino-6-[4-(3,3-difluorocyclobutyl)phenyl]-2-methoxy-7,8-dihydropyrido[4,3-d]pyrimidin-5(6H)-one] | 57.6 |
| COc1nc(N)c2c(n1)CCN(c1ccc([C@H]3C[C@H](O)C3)cc1)C2=O [Example 1I, 4-amino-6-[4-(trans-3-hydroxycyclobutyl)phenyl]-2-methoxy-7,8-dihydropyrido[4,3-d]pyrimidin-5(6H)-one] | 95.8 |
| COc1nc(N)c2c(n1)CCN(c1ccc([C@H]3C[C@@H](O)C3)cc1)C2=O [Example 1J, 4-amino-6-[4-(cis-3-hydroxycyclobutyl)phenyl]-2-methoxy-7,8-dihydropyrido[4,3-d]pyrimidin-5(6H)-one] | 59.8 |
| COc1nc(N)c2c(n1)CCN(c1ccc(C3(CO)CCC3)cc1)C2=O [Example 1O, 4-amino-6-{4-[1-(hydroxymethyl)cyclobutyl]phenyl}-2-methoxy-7,8-dihydropyrido[4,3-d]pyrimidin-5(6H)-one] | 35.9 |
| COc1nc(N)c2c(n1)CCN(c1ccc(C3(C(=O)O)CCC3)cc1)C2=O [Example 1P, 1-[4-(4-amino-2-methoxy-5-oxo-7,8-dihydropyrido[4,3-d]pyrimidin-6(5H)-yl)phenyl]cyclobutanecarboxylic acid] | 67.1 |
| COc1nc(N)c2c(n1)CCN(c1ccc(C(O)(C(F)(F)F)C(F)(F)F)cc1)C2=O [Example 1X, 4-amino-2-methoxy-6-{4-[2,2,2-trifluoro-1-hydroxy-1-(trifluoromethyl)ethyl]phenyl}-7,8-dihydropyrido[4,3-d]pyrimidin-5(6H)-one] | 5.19 |
| COC(=O)c1ccc(N2CCc3nc(OC)nc(N)c3C2=O)cc1 [Example 2A, Methyl 4-(4-amino-2-methoxy-5-oxo-7,8-dihydropyrido[4,3-d]pyrimidin-6(5H)-yl)benzoate] | 50.3 |
| COc1nc(N)c2c(n1)CCN(c1ccc(C(=O)OC3CCCCC3)cc1)C2=O [Example 2G, Cyclohexyl 4-(4-amino-2-methoxy-5-oxo-7,8-dihydropyrido[4,3-d]pyrimidin-6(5H)-yl)benzoate] | 74.4 |
| COc1nc(N)c2c(n1)CCN(c1ccc(C(=O)N(C)C)cc1)C2=O [Example 2H, 4-(4-amino-2-methoxy-5-oxo-7,8-dihydropyrido[4,3-d]pyrimidin-6(5H)-yl)-N,N-dimethylbenzamide] | 1370 |

Further lines, results first:

| IC50 [nM] | SMILES |
| --- | --- |
| 90.4 | COc1nc(N)c2c(n1)CCN(c1ccc(OC(F)(F)F)cc1)C2=O [Example 1A, 4-amino-2-methoxy-6-[4-(trifluoromethoxy)phenyl]-7,8-dihydropyrido[4,3-d]pyrimidin-5(6H)-one] |
| 52.7 | CCc1ccc(N2CCc3nc(OC)nc(N)c3C2=O)cc1 [Example 1B, 4-amino-6-(4-ethylphenyl)-2-methoxy-7,8-dihydropyrido[4,3-d]pyrimidin-5(6H)-one] |
| 52.9 | COc1nc(N)c2c(n1)CCN(c1ccc(C(C)(C)CO)cc1)C2=O [Example 1T, 4-amino-6-[4-(2-hydroxy-1,1-dimethylethyl)phenyl]-2-methoxy-7,8-dihydropyrido[4,3-d]pyrimidin-5(6H)-one] |
| 46 | COc1nc(N)c2c(n1)CCN(c1ccc(C(O)C(F)(F)F)cc1)C2=O (stereo not shown) [Example 1Y, 4-amino-2-methoxy-6-[4-(2,2,2-trifluoro-1-hydroxyethyl)phenyl]-7,8-dihydropyrido[4,3-d]pyrimidin-5(6H)-one] |
| 4.92 | COc1nc(N)c2c(n1)CCN(c1ccc(CC(C)C)cc1)C2=O [Example 1Z, 4-amino-6-(4-isobutylphenyl)-2-methoxy-7,8-dihydropyrido[4,3-d]pyrimidin-5(6H)-one] |
| 177 | COc1nc(N)c2c(n1)CCN(c1ccc(C(C)(C)O)cc1)C2=O [Example 2B, 4-amino-6-[4-(1-hydroxy-1-methylethyl)phenyl]-2-methoxy-7,8-dihydropyrido[4,3-d]pyrimidin-5(6H)-one] |
| 86.6 | COc1nc(N)c2c(n1)CCN(c1ccc(C(C)(C)F)cc1)C2=O [Example 2C, 4-amino-6-[4-(1-fluoro-1-methylethyl)phenyl]-2-methoxy-7,8-dihydropyrido[4,3-d]pyrimidin-5(6H)-one] |
| 34.6 | COc1nc(N)c2c(n1)CCN(c1ccc(C(C)(C)OC)cc1)C2=O [Example 2D, 4-amino-2-methoxy-6-[4-(1-methoxy-1-methylethyl)phenyl]-7,8-dihydropyrido[4,3-d]pyrimidin-5(6H)-one] |
| 1480 | COc1nc(N)c2c(n1)CCN(c1ccc(C(=O)O)cc1)C2=O [Example 2E, 4-(4-amino-2-methoxy-5-oxo-7,8-dihydropyrido[4,3-d]pyrimidin-6(5H)-yl)benzoic acid] |
| 13.7 | COC(=O)C(C)(C)c1ccc(N2CCc3nc(OC)nc(N)c3C2=O)cc1 [Example 3A, methyl 2-[4-(4-amino-2-methoxy-5-oxo-7,8-dihydropyrido[4,3-d]pyrimidin-6(5H)-yl)phenyl]-2-methylpropanoate] |
| 46.2 | COc1nc(N)c2c(n1)CCN(c1ccc(C(C)(C)C(=O)O)cc1)C2=O [Example 3D, 2-[4-(4-amino-2-methoxy-5-oxo-7,8-dihydropyrido[4,3-d]pyrimidin-6(5H)-yl)phenyl]-2-methylpropanoic acid] |
| 51.5 | COc1nc(N)c2c(n1)CCN(c1ccc(C(C)(C)c3nc(C)no3)cc1)C2=O [Example 3F, 4-amino-2-methoxy-6-{4-[1-methyl-1-(3-methyl-1,2,4-oxadiazol-5-yl)ethyl]phenyl}-7,8-dihydropyrido[4,3-d]pyrimidin-5(6H)-one] |
